Patent US5250554A, “Benzimidazole derivatives useful as angiotensin II inhibitors” (Takeda Chemical Industries, Ltd., priority 1989, dated 1993)
Counter-ions that a name gives are not always drawn.

Key:
pressor action of A-II = assay: Inhibitory effect on pressor action of A-II (oral drug, i.v. A-II 100 ng/kg); type: in vivo, Jcl:SD rats (9 week old, male); settings: rats, A-II 100 ng/kg i.v.; for inhibition in vivo at 3 mg/kg / inhibition in vivo at 30 mg/kg: Rattus norvegicus, po; for inhibition in vivo at 3 mg/kg: read-out: Pressor response to A II (p.o.), 3 mg/kg (percent inhibition); for inhibition in vivo at 30 mg/kg: read-out: Pressor response to A II (p.o.), 30 mg/kg (percent inhibition)
Description: Inhibitory effect of the compound of this invention on pressor action of A-II
Jcl:SD rats (9 week old, male) were used. On the day prior to that of the experiment, these animals were applied with cannulation into the femoral artery and vein under anesthesia with pentobarbital Na. The animals were fasted but allowed free access to drinking water until the experiment was started. On the day of conducting the experiment, the artery cannula was connected with a blood-pressure transducer, and the average blood pressure was recorded by means of polygraph. […] The drugs were orally administered, and then, at each point of the measurement, A-II was administered intravenously, and the pressor action was similarly measured. By comparing the pressor action before and after administration of the drug, the percent inhibition by the drug on A-II-induced pressor action was evaluated.

A-II receptor = molecular target: T1, A-II receptor (Bos taurus, UniProt P25104); assay: Inhibition of binding of angiotensin-II to angiotensin receptor (radioreceptor assay, 125I-A-II); set-up: species or system bovine (membrane fraction of bovine adrenal cortex); settings: bovine adrenal cortex membrane, 125I-A-II, 1 h room temperature; for inhibition at 10 µM: read-out: Radioreceptor assay, inhibition of A-II binding, 1 × 10^-5 M; for inhibition at 1 µM: read-out: Radioreceptor assay, inhibition of A-II binding, 1 × 10^-6 M
T1 construct: An A-II receptor was prepared from the membrane fraction of bovine adrenal cortex; from tissue; host or cells: bovine adrenal cortex, membrane fraction
T1 sequence (P25104 1-359): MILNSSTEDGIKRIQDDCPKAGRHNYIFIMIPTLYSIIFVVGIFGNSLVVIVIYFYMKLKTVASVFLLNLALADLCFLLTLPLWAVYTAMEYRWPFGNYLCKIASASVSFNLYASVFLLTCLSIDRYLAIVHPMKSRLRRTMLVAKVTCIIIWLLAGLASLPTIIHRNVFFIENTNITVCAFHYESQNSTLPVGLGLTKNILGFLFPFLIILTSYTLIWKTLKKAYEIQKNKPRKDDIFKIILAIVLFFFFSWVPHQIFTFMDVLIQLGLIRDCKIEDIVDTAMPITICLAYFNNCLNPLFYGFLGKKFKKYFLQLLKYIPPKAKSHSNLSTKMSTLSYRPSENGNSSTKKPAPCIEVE
Description: Inhibition of binding of angiotensin-II to angiotensin receptor
An A-II receptor was prepared from the membrane fraction of bovine adrenal cortex.

Compound | inhibition in vivo at 3 mg/kg (pressor action of A-II; 3 mg/kg p.o.) [%] | inhibition in vivo at 30 mg/kg (pressor action of A-II; 30 mg/kg p.o.) [%] | inhibition at 10 µM (A-II receptor; 1 × 10^-5 M) [%] | inhibition at 1 µM (A-II receptor; 1 × 10^-6 M) [%] | Pressor response to A II (p.o.), 3 mg/kg (percent inhibition) (pressor action of A-II; 3 mg/kg p.o.) | Pressor response to A II (p.o.), 30 mg/kg (percent inhibition) (pressor action of A-II; 30 mg/kg p.o.) | Radioreceptor assay, inhibition of A-II binding, 1 × 10^-5 M (A-II receptor; 1 × 10^-5 M) | Radioreceptor assay, inhibition of A-II binding, 1 × 10^-6 M (A-II receptor; 1 × 10^-6 M)
CSCc1nc2cccc(C(=O)O)c2n1Cc1ccc(-c2ccccc2-c2nnn[nH]2)cc1 [Working Example 51, 2-Methylthiomethyl-1-[[2'-(1H-tetrazol-5-yl)biphenyl-4-yl]methyl]benzimidazole-7-carboxylic acid] | > 70 | > 70 | 76 | 45 | – | – | – | –
CCCCc1nc2cccc(C(=O)O)c2n1Cc1ccc(-c2ccccc2-c2nnn[nH]2)cc1 [Working Example 1, 2-Butyl-1-[[2'-(1H-tetrazol-5-yl)biphenyl-4-yl]methyl]benzimidazole-7-carboxylic acid] | > 70 | > 70 | 95 | 78 | – | – | – | –
CCCCc1nc2cccc(C(=O)O)c2n1Cc1ccc(-c2ccccc2-c2nn[nH]n2)cc1 [Working Example 29, 2-Butyl-1-[[2'-(1H-tetrazol-5-yl)biphenyl-4-yl]methyl]benzimidazole-7-carboxylic acid 2.potassium salt] | – | – | – | – | +++ (+++ ≥70%) | +++ (+++ ≥70%) | 87 | 60
CCCCc1nc2c(C(N)=O)cccc2n1Cc1ccc(-c2ccccc2-c2nnn[nH]2)cc1 [compound 30, 2-Butyl-1-[[2'-(1H-tetrazol-5-yl)biphenyl-4-yl]methyl]benzimidazole-4-carboxamide, reference compound] | < 30 | < 30 | 40 | 1 | – | – | – | –
CCCCc1nc2cccc(C(=O)OCc3oc(=O)oc3C)c2n1Cc1ccc(-c2ccccc2-c2nn[nH]n2)cc1 [Working Example 39] | > 70 | > 70 | 97 | 83 | – | – | – | –
CCCCc1nc2cccc(C(=O)O)c2n1Cc1ccc(-c2ccccc2-c2nn[nH]n2)cc1 [Working Example 4, 2-Butyl-1-[[2'-(1H-tetrazol-5-Yl)biphenyl-4-yl]methyl]benzimidazole-7-carboxylic acid 2-sodium salt] | > 70 | > 70 | 91 | 71 | – | – | – | –
CCCCc1nc2cccc(C(=O)OC(C)OC(=O)OC3CCCCC3)c2n1Cc1ccc(-c2ccccc2-c2nn[nH]n2)cc1 (stereo not drawn) [Working Example 37] | > 70 | > 70 | 94 | 65 | – | – | – | –
CCc1nc2cccc(C(=O)O)c2n1Cc1ccc(-c2ccccc2-c2nn[nH]n2)cc1 [Working Example 27] | > 70 | > 70 | 96 | 91 | – | – | – | –
CCCCc1nc2ccc(C(=O)OC)cc2n1Cc1ccc(-c2ccccc2-c2nnn[nH]2)cc1 [compound 49, Methyl 2-butyl-1-[[2'-(1H-tetrazol-5-yl)biphenyl-4-yl]methyl]benzimidazole-6-carboxylate, reference compound] | < 30 | < 30 | 94 | 77 | – | – | – | –
CCCCc1nc2cccc(C(=O)OC)c2n1Cc1ccc(-c2ccccc2-c2nnn[nH]2)cc1 [Working Example 34, Methyl 2-butyl-1-[[2'-(1H-tetrazol-5-yl)biphenyl-4-yl]methyl]benzimidazole-7-carboxylate] | > 70 | > 70 | 90 | 66 | – | – | – | –
CCCCc1nc2cc(C(=O)O)ccc2n1Cc1ccc(-c2ccccc2-c2nnn[nH]2)cc1 [compound 44, 2-Butyl-1-[[2'-(1H-tetrazol-5-yl)biphenyl-4-yl]methyl]benzimidazole-5-carboxylic acid, reference compound] | < 30 | – | 66 | 13 | – | – | – | –
CCCCc1nc2cccc(C(=O)OCC)c2n1Cc1ccc(-c2ccccc2-c2nnn[nH]2)cc1 [Working Example 14, Ethyl 2-butyl-1-[[2'-(1H-tetrazol-5-yl)biphenyl-4-yl]methyl]benzimidazole-7-carboxylate] | 50 to 70 | > 70 | 82 | 50 | – | – | – | –
CCCCc1nc2cccc(C(=O)OCOC(=O)C(C)(C)C)c2n1Cc1ccc(-c2ccccc2-c2nn[nH]n2)cc1 [Working Example 36] | > 70 | > 70 | 95 | 86 | – | – | – | –
CCCCc1nc2ccc(Cl)cc2n1Cc1ccc(-c2ccccc2-c2nn[nH]n2)cc1 [compound 21, 2-Butyl-6-chloro-1-[[2,-(1H-tetrazol-5-yl)biphenyl-4-yl]methyl]benzimidazol, reference compound] | – | < 30 | 79 | 22 | – | – | – | –
CCCc1nc2cccc(C(=O)OC)c2n1Cc1ccc(-c2ccccc2-c2nnn[nH]2)cc1 [Working Example 31, Methyl 2-propyl-1-[[2'-(1H-tetrazol-5-yl)biphenyl-4-yl)methyl]benzimidazole-7-carboxylate] | > 70 | > 70 | 92 | 78 | – | – | – | –
CCCCc1nc2ccccc2n1Cc1ccc(-c2ccccc2-c2nnn[nH]2)cc1 [Reference Example 17, 2-Butyl-1-[[2'-(1H-tetrazol-5-yl)biphenyl-4-yl]methyl]benzimidazole, reference compound] | < 30 | < 30 | 87 | 52 | – | – | – | –
CCCCc1nc2cc(C)cc(C(=O)OC)c2n1Cc1ccc(-c2ccccc2-c2nn[nH]n2)cc1 [Working Example 9] | 50 to 70 | – | 92 | 45 | – | – | – | –
CCCc1nc2cccc(C(=O)O)c2n1Cc1ccc(-c2ccccc2-c2nn[nH]n2)cc1 [Working Example 7, 2-Propyl-1-[[2'-(1H-tetrazol-5-yl)bichenyl-4-yl]methyl]benzimidazole-7-carboxylic acid] | > 70 | > 70 | 95 | 79 | – | – | – | –
CC(C)c1nc2cccc(C(=O)O)c2n1Cc1ccc(-c2ccccc2-c2nnn[nH]2)cc1 [Working Example 28, 2-Isopropyl-1-[[2'-(1H-tetrazol-5-yl)biphenyl-4-yl]methyl]benzimidazole-7-carboxylic acid] | 30 to 50 | – | 98 | 88 | – | – | – | –
CCCCc1nc2ccc(C(=O)O)cc2n1Cc1ccc(-c2ccccc2-c2nn[nH]n2)cc1 [compound 50, reference compound] | < 30 | < 30 | 53 | 7 | – | – | – | –
CCCCc1nc2ccccc2n1Cc1ccc(-c2ccccc2C(=O)O)cc1 [compound 26, 2-[4-(2-Butylbenzimidazol-1-yl)methylphenyl]benzoic acid, reference compound] | – | – | 87 | 48 | – | – | – | –
